Counter-ions that a name gives are not always drawn. Like-named read-outs stand apart in the source and are kept apart here. Blank lines part the entries; values can stand above or below the compound they belong to.
What was measured:
[1] = biological target: PI3Kδ (p110δ/p85α) Recombinant Human Protein (Homo sapiens (Human), UniProt O00329); assay: PI3Kδ Scintillation Proximity Assay; assay type: biochemical; settings: 2 μM ATP, 20 μM PIP2
Text: Materials: [γ-^33P]ATP (10 mCi/mL) and Wheat Germ Agglutinin (WGA) YSi SPA Scintillation Beads was purchased from Perkin Elmer (Waltham, Mass.). Lipid kinase substrate, D-myo-Phosphatidylinositol 4,5-bisphosphate (PtdIns(4,5)P2)D (+)-sn-1,2-di-O-octanoylglyceryl, 3-O-phospho linked (PIP2), CAS 204858-53-7, was purchased from Echelon Biosciences (Salt Lake City, Utah). PI3Kδ (p110δ/p85α) Recombinant Human Protein was purchased from Eurofins (St Charles, Mo.). ATP, MgCl2, DTT, EDTA, MOPS and CHAPS were purchased from Sigma Aldrich (St. Louis, Mo.).
The kinase reaction was conducted in polystyrene 384-well Greiner Bio-one white plate from Thermo Fisher Scientific in a final volume of 25 μL. Inhibitors were first diluted serially in DMSO and added to the plate wells before the addition of other reaction components. The final concentration of DMSO in the assay was 2%. The PI3Kδ assay was carried out at room temperature in 20 mM MOPS, pH 6.7, 10 mM MgCl2, 5 mM DTT and CHAPS 0.03%. Reactions were initiated by the addition of ATP, the final reaction mixture consisted of 20 μM PIP2, 2 μM ATP, 0.5 μCi [γ-^33P] ATP, 3.4 nM PI3Kδ. Reactions were incubated for 120 min and terminated by the addition of 40 μL SPA beads suspended in quench buffer: 163 mM potassium phosphate pH 7.8, 20% glycerol, 25 mM EDTA. The final concentration of SPA beads is 1.0 mg/mL. After the plate sealing, plates were shaken overnight at room temperature and centrifuged at 1500 rpm for 10 min, the radioactivity of the product was determined by scintillation counting on Topcount (PerkinElmer). IC50 determination was performed by fitting the curve of percent of the solvent control activity versus the log of the inhibitor concentration using the GraphPad Prism 6.0 software.

[2] = test system: Phosphorylated Ribosomal Protein S6 (RPS6) in THP-1 cells; assay: THP-1 RPS6 ELISA Assay; assay type: cell-based, Human; settings: Homo sapiens
Procedure, shortened: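 Cells serum-starved overnight, pre-incubated with compounds 2 h at 37° C, then stimulated with 10 nM MCP-1 for 15 min. Lysates assayed for phospho-RPS6 by ELISA read at 450 nm. IC50 from percent inhibition vs log concentration curve fit.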

[3] = Table A1, THP-1 cells, 10 nM MCP-1, read-out: PI3Kγ_THP1_RPS6_ELISA IC50
[4] = Table A3, THP-1 cells, 10 nM MCP-1, read-out: PI3Kγ_THP1_RPS6_ELISA IC50
[5] = Table A4, THP-1 cells, 10 nM MCP-1, read-out: PI3Kγ_THP1_RPS6_ELISA IC50
[6] = Table A4, THP-1 cells, 10 nM MCP-1, cells given with + symbol, read-out: PI3Kγ_THP1_RPS6_ELISA IC50
[7] = THP-1, read-out: PI3Kγ_THP1_RPS6_ELISA IC50 (nM)

PI3Kδ (p110δ/p85α) Recombinant Human Protein, sequence (O00329 whole entry): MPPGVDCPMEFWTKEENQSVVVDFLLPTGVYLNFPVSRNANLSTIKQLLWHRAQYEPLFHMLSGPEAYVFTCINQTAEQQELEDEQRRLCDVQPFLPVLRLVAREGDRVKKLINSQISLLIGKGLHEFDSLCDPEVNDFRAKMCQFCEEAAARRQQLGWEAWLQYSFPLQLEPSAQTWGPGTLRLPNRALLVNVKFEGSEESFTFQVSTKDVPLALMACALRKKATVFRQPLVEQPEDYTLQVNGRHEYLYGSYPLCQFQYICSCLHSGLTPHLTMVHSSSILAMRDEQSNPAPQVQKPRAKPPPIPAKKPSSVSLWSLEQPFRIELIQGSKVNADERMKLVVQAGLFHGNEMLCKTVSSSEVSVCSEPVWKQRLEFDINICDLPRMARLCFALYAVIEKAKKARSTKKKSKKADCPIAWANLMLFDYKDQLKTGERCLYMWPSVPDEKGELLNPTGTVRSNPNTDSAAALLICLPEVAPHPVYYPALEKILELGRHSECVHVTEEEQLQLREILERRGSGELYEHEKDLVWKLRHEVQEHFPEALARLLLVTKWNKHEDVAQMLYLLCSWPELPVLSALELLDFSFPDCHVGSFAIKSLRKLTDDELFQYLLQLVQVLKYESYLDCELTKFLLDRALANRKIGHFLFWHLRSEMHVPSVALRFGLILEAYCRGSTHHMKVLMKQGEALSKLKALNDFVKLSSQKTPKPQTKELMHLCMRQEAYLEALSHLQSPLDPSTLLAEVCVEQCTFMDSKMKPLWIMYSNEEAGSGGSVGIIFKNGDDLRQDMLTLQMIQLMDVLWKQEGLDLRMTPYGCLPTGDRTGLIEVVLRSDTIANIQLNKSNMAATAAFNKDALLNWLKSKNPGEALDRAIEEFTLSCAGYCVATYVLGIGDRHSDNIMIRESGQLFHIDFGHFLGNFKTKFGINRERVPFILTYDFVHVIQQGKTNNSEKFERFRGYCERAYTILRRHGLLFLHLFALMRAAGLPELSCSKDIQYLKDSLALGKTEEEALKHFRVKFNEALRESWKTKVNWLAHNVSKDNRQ
PI3Kδ (p110δ/p85α) Recombinant Human Protein, sequence (P27986 whole entry partner): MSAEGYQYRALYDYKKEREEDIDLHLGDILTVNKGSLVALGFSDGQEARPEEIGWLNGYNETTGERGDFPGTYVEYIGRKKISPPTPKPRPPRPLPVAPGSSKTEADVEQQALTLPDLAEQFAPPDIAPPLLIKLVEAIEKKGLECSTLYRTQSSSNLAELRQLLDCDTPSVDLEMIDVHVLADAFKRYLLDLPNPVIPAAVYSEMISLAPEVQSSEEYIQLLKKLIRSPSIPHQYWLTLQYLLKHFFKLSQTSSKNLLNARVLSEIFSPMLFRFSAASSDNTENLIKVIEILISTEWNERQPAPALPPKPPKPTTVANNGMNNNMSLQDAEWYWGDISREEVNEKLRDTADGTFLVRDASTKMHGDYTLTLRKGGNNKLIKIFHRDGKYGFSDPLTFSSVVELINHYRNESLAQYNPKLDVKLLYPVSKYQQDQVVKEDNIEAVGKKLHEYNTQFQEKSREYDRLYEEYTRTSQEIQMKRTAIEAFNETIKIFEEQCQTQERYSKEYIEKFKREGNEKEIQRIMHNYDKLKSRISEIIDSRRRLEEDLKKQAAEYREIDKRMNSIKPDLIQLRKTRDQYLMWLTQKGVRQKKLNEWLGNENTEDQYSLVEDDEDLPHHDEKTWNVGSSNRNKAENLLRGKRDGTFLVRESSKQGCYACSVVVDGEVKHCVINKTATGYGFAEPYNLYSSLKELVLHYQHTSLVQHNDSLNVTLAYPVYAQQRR

Compound: Cc1ccc(C(O)(C(N)=O)C(F)(F)F)cc1-c1cnc(N)c(C(=O)N2CCc3cccnc32)n1 (stereo not drawn) [Example 28, 2-(3-(5-amino-6-(2,3-dihydro-1H-pyrrolo[2,3-b]pyridine-1-carbonyl)pyrazin-2-yl)-4-methylphenyl)-3,3,3-trifluoro-2-hydroxypropanamide]
IC50 ([1]; Table A1): < 500 nM | IC50 [2, 3]: < 100 nM

Compound: Cc1ccc(C(O)(CNC(=O)C(C)(C)O)C(F)(F)F)cc1-c1cnc(N)c(C(=O)NC(C)C)n1 (stereo not drawn) [Example 41, 3-Amino-N-isopropyl-6-(2-methyl-5-(1,1,1-trifluoro-2-hydroxy-3-(2-hydroxy-2-methylpropanamido)propan-2-yl)phenyl)pyrazine-2-carboxamide trifluoroacetate]
IC50 ([1]; Table A1): < 500 nM | IC50 [2, 3]: > 1000 nM

Compound: C/C=C\c1nc(-c2cc(C(O)(C(N)=O)C(F)(F)F)ccc2C)cnc1N (stereo not drawn) [Example 44, (Z)-2-(3-(5-amino-6-(prop-1-en-1-yl)pyrazin-2-yl)-4-methylphenyl)-3,3,3-trifluoro-2-hydroxypropanamide]
IC50 ([1]; Table A2): < 500 nM

Compound: CCCc1nc(-c2cc(C(O)(C(N)=O)C(F)(F)F)ccc2C)cnc1N (stereo not drawn) [Example 45, 2-(3-(5-amino-6-propylpyrazin-2-yl)-4-methylphenyl)-3,3,3-trifluoro-2-hydroxypropanamide]
IC50 ([1]; Table A2): < 500 nM | IC50 ([2]; Table A2, THP-1 cells, 10 nM MCP-1, read-out: PI3Kγ_THP1_RPS6_ELISA IC50): < 500 nM

Compound: Cc1ccc(C(O)(C(N)=O)C(F)(F)F)cc1-c1cnc(N)c(C(F)(F)F)n1 (stereo not drawn) [Example 46, 2-(3-(5-Amino-6-(trifluoromethyl)pyrazin-2-yl)-4-methylphenyl)-3,3,3-trifluoro-2-hydroxypropanamide trifluoroacetate]
IC50 ([1]; Table A2): < 500 nM

Compound: CNC(=O)c1ccc(-c2nc(-c3cc(C(O)(C(N)=O)C(F)(F)F)ccc3C)cnc2N)cn1 (stereo not drawn) [Example 80, 5-(3-amino-6-(5-(3-amino-1,1,1-trifluoro-2-hydroxy-3-oxopropan-2-yl)-2-methylphenyl)pyrazin-2-yl)-N-methylpicolinamide bistrifluoroacetate]
IC50 ([1]; Table A3): < 500 nM | IC50 [2, 4]: < 1000 nM

Compound: Cc1ccc(C(O)(C(N)=O)C(F)(F)F)cc1-c1cnc(N)c(-c2cncnc2)n1 (stereo not drawn) [Example 81, 2-(3-(5-amino-6-(pyrimidin-5-yl)pyrazin-2-yl)-4-methylphenyl)-3,3,3-trifluoro-2-hydroxypropanamide trifluoroacetate]
IC50 ([1]; Table A3): < 500 nM | IC50 [2, 4]: < 500 nM

Compound: Cc1ccc(C(O)(C(N)=O)C(F)(F)F)cc1-c1cnc(N)c(-c2cccc(C(C)C)c2)n1 (stereo not drawn) [Example 90, 2-(3-(5-amino-6-(3-isopropylphenyl)pyrazin-2-yl)-4-methylphenyl)-3,3,3-trifluoro-2-hydroxypropanamide trifluoroacetate]
IC50 ([1]; Table A3): < 500 nM | IC50 [2, 4]: < 500 nM

Compound: Cc1ccc(C(O)(C(N)=O)C(F)(F)F)cc1-c1cnc(N)c(-c2ccc(C3CC3)cc2)n1 (stereo not drawn) [Example 92, 2-(3-(5-amino-6-(4-cyclopropylphenyl)pyrazin-2-yl)-4-methylphenyl)-3,3,3-trifluoro-2-hydroxypropanamide trifluoroacetate]
IC50 ([1]; Table A3): < 500 nM | IC50 [2, 4]: < 500 nM

Compound: CNC(=O)C(O)(c1ccc(C)c(-c2cnc(N)c(-c3cnn(C)c3)n2)c1)C(F)(F)F (stereo not drawn) [Example 96, 2-(3-(5-Amino-6-(1-methyl-1H-pyrazol-4-yl)pyrazin-2-yl)-4-methylphenyl)-3,3,3-trifluoro-2-hydroxy-N-methylpropanamide]
IC50 ([1]; Table A3): < 500 nM | IC50 [2, 4]: < 100 nM

Compound: Cc1ccc(C(O)(CNC=O)C(F)(F)F)cc1-c1cnc(N)c(-c2cn[nH]c2)n1 (stereo not drawn) [Example 103, N-(2-(3-(5-amino-6-(1H-pyrazol-4-yl)pyrazin-2-yl)-4-methylphenyl)-3,3,3-trifluoro-2-hydroxypropyl)formamide trifluoroacetate]
IC50 ([1]; Table A3): < 500 nM | IC50 [2, 4]: < 500 nM

Compound: Cc1ccc(C(O)(C(N)=O)C(F)(F)F)cc1-c1cnc(N)c(N2CCN(c3ccccn3)CC2)n1 (stereo not drawn) [Example 117, 2-(3-(5-amino-6-(4-(pyridin-2-yl)piperazin-1-yl)pyrazin-2-yl)-4-methylphenyl)-3,3,3-trifluoro-2-hydroxypropanamide trifluoroacetate]
IC50 [2, 7]: < 100 nM

Compound: Cc1ccc(C(O)(C(N)=O)C(F)(F)F)cc1-c1cnc(N)c(N2CCN(CCC#N)CC2)n1 (stereo not drawn) [Example 125, 2-(3-(5-amino-6-(4-(2-cyanoethyl)piperazin-1-yl)pyrazin-2-yl)-4-methylphenyl)-3,3,3-trifluoro-2-hydroxypropanamide trifluoroacetate]
IC50 [2, 7]: < 500 nM

Compound: Cc1ccc(C(O)(C(N)=O)C(F)(F)F)cc1-c1cnc(N)c(N2CCN(C(=O)c3ccco3)CC2)n1 (stereo not drawn) [Example 127, 2-(3-(5-amino-6-(4-(furan-2-carbonyl)piperazin-1-yl)pyrazin-2-yl)-4-methylphenyl)-3,3,3-trifluoro-2-hydroxypropanamide trifluoroacetate]
IC50 [2, 7]: < 100 nM

Second part, the compound after the results:

IC50 ([1]; Table A4): < 500 nM | IC50 [2, 5]: < 500 nM
Compound: Cc1ccc(C(O)(C(N)=O)C(F)(F)F)cc1-c1cnc(N)c(N2CCN(C3CC3)C(=O)C2)n1 (stereo not drawn) [Example 112, 2-(3-(5-amino-6-(4-cyclopropyl-3-oxopiperazin-1-yl)pyrazin-2-yl)-4-methylphenyl)-3,3,3-trifluoro-2-hydroxypropanamide trifluoroacetate]

IC50 ([1]; Table A4): < 500 nM | IC50 [2, 5]: < 500 nM
Compound: Cc1ccc(C(O)(C(N)=O)C(F)(F)F)cc1-c1cnc(N)c(N2CCN(C(C)(C)C)C(=O)C2)n1 (stereo not drawn) [Example 113, 2-(3-(5-amino-6-(4-tert-butyl-3-oxopiperazin-1-yl)pyrazin-2-yl)-4-methylphenyl)-3,3,3-trifluoro-2-hydroxypropanamide trifluoroacetate]

IC50 ([1]; Table A4): < 500 nM | IC50 [2, 6]: < 100 nM
Compound: Cc1ccc(C(O)(C(N)=O)C(F)(F)F)cc1-c1cnc(N)c(N2CCN(c3ccccc3)CC2)n1 (stereo not drawn) [Example 116, 2-(3-(5-amino-6-(4-phenylpiperazin-1-yl)pyrazin-2-yl)-4-methylphenyl)-3,3,3-trifluoro-2-hydroxypropanamide trifluoroacetate]

IC50 ([1]; Table A4): < 500 nM | IC50 [2, 5]: < 1000 nM
Compound: Cc1ccc(C(O)(C(N)=O)C(F)(F)F)cc1-c1cnc(N)c(N2CCN(c3ccccc3C)CC2)n1 (stereo not drawn) [Example 118, 2-(3-(5-amino-6-(4-o-tolylpiperazin-1-yl)pyrazin-2-yl)-4-methylphenyl)-3,3,3-trifluoro-2-hydroxypropanamide trifluoroacetate]

IC50 [2, 6]: < 100 nM
Compound: Cc1ccc(C(O)(C(N)=O)C(F)(F)F)cc1-c1cnc(N)c(N2CCN(c3cncs3)CC2)n1 (stereo not drawn) [Example 120, 2-(3-(5-amino-6-(4-(thiazol-5-yl)piperazin-1-yl)pyrazin-2-yl)-4-methylphenyl)-3,3,3-trifluoro-2-hydroxypropanamide trifluoroacetate]

IC50 [2, 6]: < 100 nM
Compound: Cc1ccc(C(O)(C(N)=O)C(F)(F)F)cc1-c1cnc(N)c(N2CCN(c3ccccc3C#N)CC2)n1 (stereo not drawn) [Example 122, 2-(3-(5-amino-6-(4-(2-cyanophenyl)piperazin-1-yl)pyrazin-2-yl)-4-methylphenyl)-3,3,3-trifluoro-2-hydroxypropanamide trifluoroacetate]

IC50 [2, 5]: < 500 nM
Compound: Cc1ccc(C(O)(C(N)=O)C(F)(F)F)cc1-c1cnc(N)c(N2CCN(c3ccc(C#N)cc3)CC2)n1 (stereo not drawn) [Example 123, 2-(3-(5-amino-6-(4-(4-cyanophenyl)piperazin-1-yl)pyrazin-2-yl)-4-methylphenyl)-3,3,3-trifluoro-2-hydroxypropanamide trifluoroacetate]

IC50 [2, 6]: < 100 nM
Compound: Cc1ccc(C(O)(C(N)=O)C(F)(F)F)cc1-c1cnc(N)c(N2CCN3C(=O)CCC3C2)n1 (stereo not drawn) [Example 126, 2-(3-(5-amino-6-(6-oxohexahydropyrrolo[1,2-a]pyrazin-2(1H)-yl)pyrazin-2-yl)-4-methylphenyl)-3,3,3-trifluoro-2-hydroxypropanamide trifluoroacetate]

IC50 [2, 6]: < 100 nM
Compound: Cc1ccc(C(O)(C(N)=O)C(F)(F)F)cc1-c1cnc(N)c(N2CCN(c3nccnc3C#N)CC2)n1 (stereo not drawn) [Example 128, 2-(3-(5-amino-6-(4-(3-cyanopyrazin-2-yl)piperazin-1-yl)pyrazin-2-yl)-4-methylphenyl)-3,3,3-trifluoro-2-hydroxypropanamide trifluoroacetate]
